This is an account of results in ChEMBL document CHEMBL1126358, “New hexahydroxydiphenyl derivatives as potent inhibitors of HIV replication in H9 lymphocytes” (Bioorg Med Chem Lett, 1992).

Test [1] has as its system H9. The test can be described thus: Concentration which inhibits uninfected cell growth of HIV by 50% (IC50>140 uM) in acutely infected H9 lymphocyte cells was determined. It counts as functional, cell-based. The conditions noted are these: Homo sapiens.
Test [2] deals with H9. The test can be described thus: Concentration of compound which inhibits virus replication of HIV by 50% (EC50 of 10 uM) in acutely infected H9 lymphocyte cells was determined. It is filed as functional, cell-based. The conditions noted are these: Homo sapiens.

As for `BrCc1cc(OCc2ccccc2)c(OCc2ccccc2)c(OCc2ccccc2)c1-c1c(CBr)cc(OCc2ccccc2)c(OCc2ccccc2)c1OCc1ccccc1`, in the test with H9 [1], the IC50 was > 100 µM. For the same compound, in the test on H9 [2], the EC50 was > 100 µM.

In the test with H9 [1], `COc1c(OCc2ccccc2)c(OCc2ccccc2)cc(CBr)c1-c1c(CBr)cc(OCc2ccccc2)c(OCc2ccccc2)c1OC` returned an IC50 of 30 µM. The EC50 in the test on H9 [2] was determined as 13 µM.

With `O=Cc1cc(OCc2ccccc2)c(OCc2ccccc2)c(OCc2ccccc2)c1-c1c(C=O)cc(OCc2ccccc2)c(OCc2ccccc2)c1OCc1ccccc1`, the IC50 in the test with H9 [1] amounted to 70 µM. In the test with H9 [2], this compound displayed an EC50 of 45 µM.

In turn, `COc1c(OCc2ccccc2)c(OCc2ccccc2)cc(C=O)c1-c1c(C=O)cc(OCc2ccccc2)c(OCc2ccccc2)c1OC` registered an IC50 in the test on H9 [1] of 4 µM. Also, the EC50 with H9 [2] amounted to 2 µM.

With `COc1c(OCc2ccccc2)c(OCc2ccccc2)cc(CO)c1-c1c(CO)cc(OCc2ccccc2)c(OCc2ccccc2)c1OC`, the IC50 in the test on H9 [1] is > 140 µM. This compound also registered an EC50 in the test with H9 [2] of 10 µM.

Take `OCc1cc(OCc2ccccc2)c(OCc2ccccc2)c(OCc2ccccc2)c1-c1c(CO)cc(OCc2ccccc2)c(OCc2ccccc2)c1OCc1ccccc1`: the IC50 with H9 [1] is > 120 µM. The EC50 with H9 [2] is > 120 µM.

Turning to `OCc1cc(OCc2ccccc2)c(OCc2ccccc2)c(O)c1-c1c(CO)cc(OCc2ccccc2)c(OCc2ccccc2)c1O`, the IC50 in the test on H9 [1] came to 13 µM. The EC50 in the test on H9 [2] stood at 6 µM.

For `Cc1cn([C@H]2C[C@H](N=[N+]=[N-])[C@@H](CO)O2)c(=O)[nH]c1=O` [ZIDOVUDINE], the IC50 in the test with H9 [1] is 2000 µM. The same compound showed an EC50 with H9 [2] of 0.04 µM.

What is called IC50 is the midpoint of a concentration-inhibition curve. Broadly, the EC50 is the concentration at which the effect is half-maximal. Read a low EC50 as higher potency in that assay.
